“Also recorded” adds a separate entry of the source.
Legend:
[1] = tested on: Arnt2, Piezo 2 and CaVα2δ-1 gene expression; experiment: qPCR of reporter genes in primary cultured DRG neurons exposed to cisplatin plus test molecules; type: cell-based, mouse; settings: for effect on Piezo2, CaVα2δ-1 and ARNT2 expression, molecule taken alone: ex vivo primary cultured neurons, 24 h exposure to 1.25 μg/ml cisplatin (FIGS. 5-9)
Protocol: Treatment of the DRGs for 24 hours.
The effect of different molecules was tested on the expression of the same reporter genes, Pizeo 2, CaVα2δ-1 and ARNT2, using qPCR on primary cultured DRG neurons: • NAC • Beta-carotene (provitamin A) • Vitamin B12 • Luteolin (flavone)

DRG neurons = experiment: Phase-contrast microscopy of cultured DRG neurons (morphology, neuronal networks); type: cell-based, mouse; settings: for effect on the morphology of DRG neurons (cell or network level): molecule taken alone with cisplatin, micrographs not shown
[2] = tested on: Piezo2, CaVα2δ-1 and ARNT2 expression; experiment: Reporter gene expression in vivo in the animal exposed to a chemotherapy protocol; settings: animal exposed to a chemotherapy protocol (not shown)
[3] = tested on: tactile hypersensitivity triggered by cisplatin and paclitaxel; experiment: Von Frey test of tactile hypersensitivity / chemo-induced neuropathy; type: in vivo, mouse
[4] = tested on: Piezo 2, CaVα2δ-1, ARNT2, Mafb and Kv1.4 gene expression; experiment: qPCR of ion channel and transcription factor gene expression in mouse DRG primary culture treated with chemotherapy or oxidizing agent; type: cell-based
Protocol: Model: C57Bl6 females, 8 to 15 weeks old (sexually mature young adult mice)
The next morning, place 1.25 μg/ml cisplatin with the other molecules to be tested. […]
The RNA is extracted using Macherey-Nagel's “NucleoSpin RNA” kit.
Reverse transcriptions were performed following the protocol of the “SuperScript III Reverse Transcriptase” kit from Thermo Fisher Scientific, doubling the quantities of RNA and products used in order to obtain a higher concentration of cDNA.
The qPCRs were performed with undiluted cDNA obtained by reverse-transcription using 4.625 μL of cDNA and 5.375 μL of SyberROX PCR Mix (final 10 μL per well).
When the cycle threshold (CT)>35, the gene is considered to be not expressed in the cells analyzed.
To compare our results with and without treatment, we calculated the delta between the target gene and the reference gene (36B4) for each condition (e.g. dCTPIEZO2=CTPIEZO2−CT36B4=27.4−21.6=5.8 (control); 30.6-23.4=7.2 (cisplatin)).
We then calculated the delta delta CT of the target gene for the test condition and the control conditions (e.g. ddCTPIEZO2=dCTPIEZO2 (cisplatin)−[…]=7.2−5.8=1.4).
Finally, we determined the relative expression by calculating: 2^^−ddCT (e.g. for PIEZO2:2^^−ddCT=2^^−1.4=0.40).
The results correspond to the mean±SEM.
Mouse DRGs resulting from primary culture were treated with TBHP at 10 or 30 μM or with 1.25 μg/ml cisplatin (positive control) versus control (CTRL). mRNA expression was measured by qPCR and normalized with the 36B4 reference gene. The results correspond to the mean±SEM.

CC(=O)N[C@@H](CS)C(=O)O [NAC, N-acetylcysteine]
effect on Piezo2, CaVα2δ-1 and ARNT2 expression, molecule taken alone [1]: allow Piezo2, CaVα2δ-1 and ARNT2 expression levels to rise; also recorded: strongly limits this disruption in expression
effect on the morphology of DRG neurons (cell or network level) (DRG neurons): protective effect
Piezo2, CaVα2δ-1 and ARNT2 expression levels in vivo [2]: allow Piezo2, CaVα2δ-1 and ARNT2 expression levels to rise
chemo-induced neuropathies in a mouse model ([3]; mouse model): suppresses the resulting neuropathies
tactile hypersensitivity in response to mechanical stimuli (Von Frey test) ([3]; triggered by cisplatin and paclitaxel (not shown)): dramatically reduce tactile hypersensitivity

O=c1cc(-c2ccc(O)c(O)c2)oc2cc(O)cc(O)c12 [luteolin, Luteolin]
effect on Piezo2, CaVα2δ-1 and ARNT2 expression, molecule taken alone [1]: does not appear to bring any improvement
effect on the morphology of DRG neurons (cell or network level) (DRG neurons): does not appear to bring any improvement

CC(C)(C)OO [TBHP, tert-butyl hydroperoxide]
expression of Kv1.4 (negative control) ([4]; TBHP at 10 or 30 μM (FIG. 4)): unaffected

cobalamin [vitamin B12]
effect of vitamin B12 taken alone on gene expression ([1]; dose of 25 and 50 μM, 24 h, 1.25 μg/ml cisplatin (FIG. 7)): no effect
effect on Piezo2, CaVα2δ-1 and ARNT2 expression, molecule taken alone [1]: does not appear to have a conclusive chemoprotective effect
toxicity to neuronal morphology (DRG neurons; vitamin B12 at a dose of 50 μM (not shown)): some toxicity

CC1=C(/C=C/C(C)=C/C=C/C(C)=C/C=C/C=C(C)/C=C/C=C(C)/C=C/C2=C(C)CCCC2(C)C)C(C)(C)CCC1 [beta-carotene, Beta-carotene]
effect on Piezo2, CaVα2δ-1 and ARNT2 expression, molecule taken alone [1]: effect only at a 5 μM dose, and not at the lower doses tested (0.3, 1 and 3 μM)
toxicity to cultured neurons (DRG neurons; beta-carotene 5 μM (not shown)): slightly toxic

N.N.[Cl][Pt][Cl] [cisplatin]
relative expression of PIEZO2 (2^-ddCT) ([4]; cells treated with cisplatin compared to control cells normalized to 1, reference gene 36B4): 0.40
effects on Mafb mRNA expression ([4]; cisplatin 1.25 μg/ml, 0, 4, 8 and 16 h, normalized with 36B4 (FIG. 3)): not significant

From patent US20250127735A1, “NOVEL COMPOSITION COMPRISING N-ACETYLCYSTEINE FOR OVERCOMING THE ADVERSE EFFECTS OF A CHEMOTHERAPY” (PRONUTRI, priority 2022, published 2025)
